In patent US20220363689A1, “INHIBITOR OF BTK AND MUTANTS THEREOF” (Newave Pharmaceutical Inc., priority 2019, published 2022):

Experiments:
[1] = biological target: T1, WT BTK (Homo sapiens, UniProt Q06187); test: In vitro dialysis assay (irreversibility assay), WT BTK; type: biochemical; conditions: reversible or irreversible/covalent inhibition after 24 h dialysis
Method in brief: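 Compound-BTK complex was dialyzed 24 hr against […] (cumulative factor >160,000×). Residual activity was then […] and 1 mM substrate peptide and compared with non-dialyzed samples. Buffer: 100 mM HEPES pH 7.5, 5 mM MgCl2, 1 mM DTT, BSA, Triton X-100.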

[2] = biological target: T1, WT BTK; test: Caliper-based kinase assay, WT BTK; type: biochemical; conditions: 0.5 nM enzyme, ATP 16 μM, room temperature 3 h; read-out: WT BTK IC50 (nM) (irreversible inhibition)
Description: A Caliper-based kinase assay (Caliper Life Sciences, Hopkinton, Mass.) was used to measure inhibition of WT and […] Btk kinase activity of a compound of the present disclosure. […] The reaction was then terminated with EDTA, final concentration 20 mM and the phosphorylated reaction product was quantified on a Caliper Desktop Profiler (Caliper LabChip 3000).

[3] = biological target: BTK (Homo sapiens, UniProt Q06187); test: Caliper-based kinase assay, Cys-containing kinase panel: BTK; type: biochemical; conditions: for IC50: Cys-481 homologous kinase panel
BTK, sequence (Q06187 whole entry): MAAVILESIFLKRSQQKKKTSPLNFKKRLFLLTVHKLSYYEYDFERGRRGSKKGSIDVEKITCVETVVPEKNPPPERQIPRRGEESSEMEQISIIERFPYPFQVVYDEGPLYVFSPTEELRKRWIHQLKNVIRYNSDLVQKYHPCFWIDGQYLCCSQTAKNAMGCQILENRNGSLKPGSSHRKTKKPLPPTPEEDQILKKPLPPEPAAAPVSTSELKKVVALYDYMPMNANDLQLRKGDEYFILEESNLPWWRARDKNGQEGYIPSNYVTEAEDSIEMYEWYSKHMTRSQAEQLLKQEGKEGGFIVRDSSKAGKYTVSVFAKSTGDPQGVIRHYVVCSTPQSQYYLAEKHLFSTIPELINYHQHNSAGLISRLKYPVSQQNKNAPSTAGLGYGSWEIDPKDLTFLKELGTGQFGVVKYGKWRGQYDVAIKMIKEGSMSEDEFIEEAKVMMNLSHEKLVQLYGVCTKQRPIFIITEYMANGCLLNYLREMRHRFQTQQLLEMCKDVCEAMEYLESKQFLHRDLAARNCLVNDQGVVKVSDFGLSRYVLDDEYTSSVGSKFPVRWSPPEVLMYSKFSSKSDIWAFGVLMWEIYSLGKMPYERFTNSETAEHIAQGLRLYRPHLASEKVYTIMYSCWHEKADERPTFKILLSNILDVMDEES
Excerpt: A Caliper-based kinase assay (Caliper Life Sciences, Hopkinton, Mass.) was used to measure inhibition of kinase activity of compounds of the present disclosure.

[4] = biological target: T2, BMX (Homo sapiens, UniProt P51813); test: Caliper-based kinase assay, off-target BMX; type: biochemical; conditions: Cys-481 homologous kinase panel
T2 sequence (P51813 1-675): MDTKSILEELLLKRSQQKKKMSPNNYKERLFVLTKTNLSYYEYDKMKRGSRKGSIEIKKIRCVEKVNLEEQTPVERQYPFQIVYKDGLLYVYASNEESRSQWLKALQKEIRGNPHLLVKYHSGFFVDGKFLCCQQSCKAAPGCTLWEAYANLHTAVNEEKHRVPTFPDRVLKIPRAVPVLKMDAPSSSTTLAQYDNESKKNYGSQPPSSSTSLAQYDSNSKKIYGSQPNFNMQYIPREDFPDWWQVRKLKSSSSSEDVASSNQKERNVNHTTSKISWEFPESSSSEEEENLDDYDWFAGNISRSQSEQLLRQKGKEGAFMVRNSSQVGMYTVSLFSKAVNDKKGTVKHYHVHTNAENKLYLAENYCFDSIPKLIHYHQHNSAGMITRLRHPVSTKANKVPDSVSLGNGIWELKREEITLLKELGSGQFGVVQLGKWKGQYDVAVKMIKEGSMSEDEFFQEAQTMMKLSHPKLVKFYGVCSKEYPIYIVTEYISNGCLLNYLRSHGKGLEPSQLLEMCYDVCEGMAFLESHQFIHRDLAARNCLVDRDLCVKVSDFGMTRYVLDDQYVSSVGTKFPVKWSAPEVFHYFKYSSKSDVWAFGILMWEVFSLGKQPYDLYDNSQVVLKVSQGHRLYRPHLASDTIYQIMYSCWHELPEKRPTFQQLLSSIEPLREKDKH
Excerpt: A Caliper-based kinase assay (Caliper Life Sciences, Hopkinton, Mass.) was used to measure inhibition of kinase activity of compounds of the present disclosure. […]

[5] = Mice PK study; type: in vivo; conditions: plasma, CD-1 mouse, po, 10 mg/kg; for half-life: read-out: t ½ (converted)
Description: The pharmacokinetics of compounds were evaluated in CD-1 mouse via Intravenous and Oral Administration. The IV dose was administered as a slow bolus in the Jugular vein, and oral doses were administered by gavage. The formulation for IV dosing is 5% DMSO in 20% HPBCD in water, and the PO formulation is 2.5% DMSO, 10% EtOH, 20% Cremphor EL, 67.5% D5W. The PK time point for the IV arm was 5, 15, 30 min, 1, 2, 4, 6, 8, 12, 24 hours post dose, and for PO arm was 15, 30 min, 1, 2, 4, 6, 8, 12, 24 hours post dose. Approximately 0.03 mL blood was collected at each time point. Blood of each sample was transferred into plastic micro centrifuge tubes containing EDTA-K2 and plasma was collected within 15 min by centrifugation at 4000 g for 5 minutes in a 4° C. centrifuge. Plasma samples were stored in polypropylene tubes. The samples were stored in a freezer at −75±15° C. prior to analysis. Concentrations of compounds in the plasma samples were analyzed using a LC-MS/MS method. WinNonlin (Phoenix™, version 6.1) or other similar software was used for pharmacokinetic calculations. The following pharmacokinetic parameters were calculated, whenever possible from the plasma concentration versus time data: IV administration: C0, CL, Vd, T1/2, AUCinf, AUClast, MRT, Number of Points for Regression; PO administration: Cmax, Tmax, T1/2, AUCinf, AUClast, F %, Number of Points for Regression. The pharmacokinetic data was described using descriptive statistics such as mean, standard deviation. Additional pharmacokinetic or statistical analysis was performed at the discretion of the contributing scientist, and was documented in the data summary. For comparison purpose, the PK results of oral dosing of po, 25 mg/kg of Acalbrutinib, a FDA approved BTK inhibitor, were obtained using the same methods and shown in the Table below.

[6] = tested on: CD69 surface expression in primary human B cells; test: Inhibition of CD69 surface expression in primary human B cells; type: cell-based; conditions: B-cell; 1 h pre-incubation, anti-human IgM stimulation 19 hr
Description: Primary human B cells (CD20+, purified by negative selection) were obtained from StemCell Technologies. Prior to experiment, the cells were thawed and washed two times with RPMI growth media supplemented with 10% FBS. The cells were seeded into 24 well plate at a density of 4×10^5 cells/per a well in a total volume of 500 uL. 6 hr after plating, serial dilutions of NW-1-96 were added. Control wells received DMSO only (0.1%). After 1 h pre-incubation with compound, the cells were stimulated for 19 hr with goat anti-human IgM F(ab′)2 (10 μg/mL; ThermoFisher). After stimulation, the cells were fixed by addition of paraformaldehyde to a final concentration of 4% and incubated for 20 min at room temperature. Fixed cells were collected into Eppendorf tubes, centrifuged at 1,000×g and washed three times with 50 mM Tris pH8.0, 100 mM NaCl. After washes, the cells were re-suspended in 100 uL of 50 mM Tris pH8.0, 100 mM NaCl, 0.1% BSA supplemented with 5 ug/mL of FITC-conjugated anti-CD69 antibody (ThermoFisher) and incubated at room temperature for 2 hr. The cells were next washed 3 times with 10 volumes of 50 mM Tris pH8.0, 100 mM NaCl, 0.1% BSA and re-suspended in 150 ul of the same buffer. […] CD69 staining was detected on Synergy Neo2 fluorescent plate reader: […].

T1 sequence (Q06187 whole entry): as the sequence (Q06187 whole entry) above

Row | Conclusion (WT BTK) [1] | IC50 [2] [nM] | IC50 [3] [nM] | IC50 [4] [nM] | AUC [5] [ng·h/mL] | half-life [5] [h] | Selectivity among kinases that contain a Cys homologous to Cys-481 in BTK ([3]; BTK versus BMX, TEC, TXK, BLK, HER4, EGFR, HER2) | IC50 [6] [nM] | SMILES
1 | Irreversible/covalent inhibition | 0.08 | 0.1 | 155 | 11600 | 1 | – | – | C=CC(=O)Nc1cc(Nc2nc(-c3ccnc(N4CCn5c(cc6c5CC(C)(C)C6)C4=O)c3CO)cn(C)c2=O)ccc1N1CCN(C2CCOCC2)C[C@H]1C(F)(F)F [Example 48-S, N-(5-[[6-(2-[4,4-dimethyl-9-oxo-1,10-diazatricyclo[6.4.0.0^[2,6]]dodeca-2(6),7-dien-10-yl]-3-(hydroxymethyl)pyridin-4-yl)-4-methyl-3-oxopyrazin-2-yl]amino]-2-[(2S)-4-(oxan-4-yl)-2-(trifluoromethyl)piperazin-1-yl]phenyl)prop-2-enamide]
2 | Irreversible/covalent inhibition | 0.43 | 0.25 | 183 | 74800 | 1.7 | excellent selectivity | 9.4 | C=CC(=O)Nc1cc(Nc2nc(-c3ccnc(N4CCc5c(sc6c5CCCC6)C4=O)c3CO)cn(C)c2=O)ccc1N1CCN(C2CCOCC2)C[C@H]1C(F)(F)F [Example 55-S, N-[5-([6-[3-(hydroxymethyl)-2-[6-oxo-8-thia-5-azatricyclo[7.4.0.0^[2,7]]trideca-1(9), 2(7)-dien-5-yl]pyridin-4-yl]-4-methyl-3-oxopyrazin-2-yl]amino)-2-[(2S)-4-(oxan-4-yl)-2-(trifluoromethyl)piperazin-1-yl]phenyl]prop-2-enamide]
3 | – | – | – | 0.36 | – | – | – | 109 | CC(C)(/C=C(\C#N)C(=O)N1CCC[C@@H](n2nc(-c3ccc(Oc4ccccc4)cc3F)c3c(N)ncnc32)C1)N1CCN(C2COC2)CC1 [PRN-1008, reference compound]
